Values quoted from earlier work in patent publication US20240041893A1, “An Extended-Release Pharmaceutical Formulation of Viloxazine And Process For Preparation Thereof” (Innovate Therapeutics LLC, priority 2023, published 2024).

System: norepinephrine reuptake

In the case of CCOc1ccccc1OC[C@@H]1CNCCO1 [(S)-(−)-isomer], the “pharmacological activity relative to the (R)-(+)-isomer” value is listed as “five times”.
